Publication PMC7377962 (Nature chemical biology, 2020)

Target: T1, Mur23 (Streptomyces sp. NRRL 30471, UniProt F2WUD5)
T1 sequence (F2WUD5 1-388): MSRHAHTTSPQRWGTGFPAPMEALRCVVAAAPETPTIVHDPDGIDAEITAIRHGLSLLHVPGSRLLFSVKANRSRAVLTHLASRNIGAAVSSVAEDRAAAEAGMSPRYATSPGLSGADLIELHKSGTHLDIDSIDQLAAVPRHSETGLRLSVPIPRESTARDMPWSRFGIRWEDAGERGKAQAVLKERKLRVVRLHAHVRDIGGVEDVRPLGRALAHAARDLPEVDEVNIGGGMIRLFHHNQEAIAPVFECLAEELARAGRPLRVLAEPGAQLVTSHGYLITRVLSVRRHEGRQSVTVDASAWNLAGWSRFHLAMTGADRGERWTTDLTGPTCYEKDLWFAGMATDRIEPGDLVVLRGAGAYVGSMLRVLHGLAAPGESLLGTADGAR
Assay: co-purification, UV/Vis spectrum
Format: binding
Conditions: bound as purified

Cc1ncc(COP(=O)(O)O)c(C=O)c1O [PLP, pyridoxal-5′-phosphate]
co-purification, UV/Vis spectrum: Mur23 copurified with PLP as evident by the yellow color and the characteristic UV/Vis spectrum
